Reference: patent US4251444A, “Thiazepino-[4,3-b]-isoquinoline-1,5-dione derivatives and precursors” (American Home Products Corporation, priority 1980, dated 1981)

Test system: male spontaneously hypertensive rats
Test: blood pressure lowering, systolic pressure by Decker Caudal Plethysmograph
Type: in vivo
Settings: four hours after administration of a 50 milligram dose; standard experimental rat, oral
Description: The compounds tested were administered orally and blood pressure was read prior to and at 1.5, 4 and 24 hours after drug administration.

## CC(CSC(=O)c1ccccc1)C(=O)N1Cc2ccccc2CC1C(=O)O (single isomer, unassigned) [Example 4, 2-(3-Benzoylthio-2-methylpropanoyl)-1,2,3,4-tetrahydroisoquinoline-3-carboxylic acid]
  reduction of blood pressure: 29 millimeters
